Data reported in ChEMBL document CHEMBL4219040, “Modulation of Glycine-Mediated Spinal Neurotransmission for the Treatment of Chronic Pain” (J Med Chem, 2018).

Legend:
Rattus norvegicus [1] = assay: Antiallodynic activity in po dosed rat spinal nerve ligation model assessed as reduction in mechanical allodynia; format: functional
[2] = molecular target: 5-hydroxytryptamine receptor 2A (Homo sapiens, UniProt P28223); assay: Antagonist activity at human 5-HT2A; format: functional
Rattus norvegicus [3] = assay: Analgesic activity in sc dosed formalin-induced pain rat model by formalin test; format: functional
[4] = molecular target: T1, Glycine receptor alpha-3/beta (Homo sapiens, UniProt O75311+P48167); assay: Positive allosteric modulation of human GlyRalpha3beta expressed in CHO cells assessed as potentiation of EC20 glycine-induced ion flux at 10 uM by HT assay; format: cell-based
[5] = molecular target: T1, Glycine receptor alpha-3/beta; assay: Positive allosteric modulation of human GlyRalpha3beta expressed in CHO cells assessed as potentiation of EC5 to EC10 glycine-induced response at 10 uM by manual patch clamp assay; format: cell-based
[6] = molecular target: T1, Glycine receptor alpha-3/beta; assay: Positive allosteric modulation of human GlyRalpha3beta expressed in CHO cells assessed as potentiation of EC20 glycine-induced response at 5.9 uM by fluorescence based HTS assay; format: cell-based
[7] = molecular target: T1, Glycine receptor alpha-3/beta; assay: Positive allosteric modulation of human GlyRalpha3beta expressed in CHO cells assessed as potentiation of EC20 glycine-induced ion flux by HT assay; format: cell-based
Rattus norvegicus [8] = species: Rattus norvegicus; assay: Antiallodynic activity in spinal cord injury Sprague-Dawley rat model assessed as inhibition of non-voiding contraction amplitude at 30 ug, it relative to control; format: functional
[9] = molecular target: T2, Sodium- and chloride-dependent glycine transporter 2 (Homo sapiens, UniProt Q9Y345); assay: Inhibition of human GlyT-2 expressed in HEK293 cells assessed as reduction in [3H]-glycine uptake preincubated for 30 mins followed by 3H]-glycine addition measured after 30 mins by liquid scintillation counting method; format: cell-based
T2 sequence (Q9Y345 whole entry): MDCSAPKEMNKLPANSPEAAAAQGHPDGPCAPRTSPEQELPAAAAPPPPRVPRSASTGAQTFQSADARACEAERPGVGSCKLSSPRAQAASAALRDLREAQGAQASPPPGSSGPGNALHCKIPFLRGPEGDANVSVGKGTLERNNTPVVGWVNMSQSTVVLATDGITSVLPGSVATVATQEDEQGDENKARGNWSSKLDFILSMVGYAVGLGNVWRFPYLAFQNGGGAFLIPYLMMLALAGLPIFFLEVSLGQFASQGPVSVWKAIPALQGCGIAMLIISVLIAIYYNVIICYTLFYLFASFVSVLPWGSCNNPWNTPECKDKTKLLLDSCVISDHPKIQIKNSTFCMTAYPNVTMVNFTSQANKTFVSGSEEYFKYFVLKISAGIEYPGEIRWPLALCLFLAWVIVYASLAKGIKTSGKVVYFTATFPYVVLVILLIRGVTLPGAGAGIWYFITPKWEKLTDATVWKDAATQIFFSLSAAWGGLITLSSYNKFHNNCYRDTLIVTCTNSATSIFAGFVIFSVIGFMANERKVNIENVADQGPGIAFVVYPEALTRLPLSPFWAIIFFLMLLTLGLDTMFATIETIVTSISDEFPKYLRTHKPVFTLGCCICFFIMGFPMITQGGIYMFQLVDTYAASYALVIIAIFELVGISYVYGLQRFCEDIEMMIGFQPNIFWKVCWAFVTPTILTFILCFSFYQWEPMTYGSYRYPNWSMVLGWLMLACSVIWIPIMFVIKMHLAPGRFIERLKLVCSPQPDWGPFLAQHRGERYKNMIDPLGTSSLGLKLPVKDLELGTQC

Rattus norvegicus [10] = species: Rattus norvegicus; assay: Antiallodynic activity in spinal cord injury Sprague-Dawley rat model assessed as inhibition of non-voiding contraction frequency at 10 ug, it relative to control; format: functional
[11] = molecular target: T3, Sodium- and chloride-dependent glycine transporter 1 (Homo sapiens, UniProt P48067); assay: Inhibition of human GlyT-1 expressed in HEK293 cells assessed as reduction in [3H]-glycine uptake preincubated for 30 mins followed by 3H]-glycine addition measured after 30 mins by liquid scintillation counting method; format: cell-based
T3 sequence (P48067 whole entry): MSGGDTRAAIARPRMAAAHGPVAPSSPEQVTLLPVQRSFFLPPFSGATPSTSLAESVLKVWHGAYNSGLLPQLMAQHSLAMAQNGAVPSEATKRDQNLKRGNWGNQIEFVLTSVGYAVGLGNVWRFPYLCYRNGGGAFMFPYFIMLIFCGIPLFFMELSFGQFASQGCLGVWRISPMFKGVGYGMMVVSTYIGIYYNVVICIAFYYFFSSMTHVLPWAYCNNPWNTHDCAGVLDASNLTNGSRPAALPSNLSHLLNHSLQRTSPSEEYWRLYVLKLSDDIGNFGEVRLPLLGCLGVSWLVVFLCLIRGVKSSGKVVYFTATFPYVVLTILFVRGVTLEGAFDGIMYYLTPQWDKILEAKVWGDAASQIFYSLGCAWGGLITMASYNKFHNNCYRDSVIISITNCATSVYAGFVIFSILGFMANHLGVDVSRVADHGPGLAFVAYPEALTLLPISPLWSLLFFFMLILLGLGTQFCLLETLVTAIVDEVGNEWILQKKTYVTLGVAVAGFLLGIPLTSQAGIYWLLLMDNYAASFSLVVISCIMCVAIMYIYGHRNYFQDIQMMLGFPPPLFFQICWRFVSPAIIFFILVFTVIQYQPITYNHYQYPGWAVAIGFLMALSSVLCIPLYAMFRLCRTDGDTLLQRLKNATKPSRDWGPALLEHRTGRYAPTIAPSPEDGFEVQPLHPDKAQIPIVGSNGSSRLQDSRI

[12] = Unbound brain to plasma concentration ratio in mouse; format: ADME, cell-free; settings: read-out: K(p,uu,brain)
Rattus norvegicus [13] = species: Rattus norvegicus; assay: Antiallodynic activity in spinal cord injury Sprague-Dawley rat model assessed as inhibition of non-voiding contraction amplitude at 10 ug, it relative to control; format: functional
Homo sapiens = species: Homo sapiens; assay: Selectivity ratio of IC50 for human GlyT-1 expressed in HEK293 cells to IC50 for human GlyT-2 expressed in HEK293 cells; format: cell-based
Rattus norvegicus [14] = species: Rattus norvegicus; assay: Antiallodynic activity in spinal cord injury Sprague-Dawley rat model assessed as inhibition of non-voiding contraction frequency at 30 ug, it relative to control; format: functional
[15] = Toxicity in ip dosed formalin-induced pain mouse model; format: organism-based; settings: in vivo
[16] = molecular target: T3, Sodium- and chloride-dependent glycine transporter 1; assay: Inhibition of human GlyT-1 expressed in CHO cells assessed as reduction in [3H]-glycine uptake; format: cell-based
Mus musculus [17] = assay: Antiallodynic activity in ddY mouse partial sciatic nerve ligation-injury model assessed as inhibition of mechanical allodynia by measuring paw withdrawal threshold in response to probing with von Frey hairs administered via iv route; format: functional
Mus musculus [18] = assay: In vivo receptor occupancy at GlyT-2 in formalin-induced pain mouse model at 100 mg/kg, ip; format: functional
Mus musculus [19] = assay: In vivo receptor occupancy at GlyT-2 in formalin-induced pain mouse model at 20 mg/kg, ip; format: functional
Mus musculus [20] = assay: Analgesic activity in formalin-induced pain mouse model assessed as reduction in phase 2 paw licking behavior at 25 mg/kg, ip; format: functional; parameters: scale not given: the % may be the effect or the level left
Mus musculus [21] = assay: Analgesic activity in formalin-induced pain mouse model assessed as reduction in phase 2 paw licking behavior at 100 mg/kg, ip; format: functional; parameters: scale not given: the % may be the effect or the level left
Rattus norvegicus [22] = species: Rattus norvegicus; assay: Inhibition of GlyT in rat spinal cord lamina X neuron assessed as increase in extracellular glycine level at 10 uM relative to basal level; parameters: scale not given: the % may be the effect or the level left
Mus musculus [23] = assay: In vivo receptor occupancy at GlyT-2 in formalin-induced pain mouse model at 0.06 mg/kg, ip; format: functional
Mus musculus [24] = assay: In vivo receptor occupancy at GlyT-2 in formalin-induced pain mouse model at 25 mg/kg, ip; format: functional
[25] = molecular target: T4, P2X purinoceptor 7 (Mus musculus) (UniProt Q9Z1M0); assay: Agonist activity at P2X7 receptor in C57Bl6 mouse lumbar spinal cord slices assessed as increase in glycinergic inhibitory postsynaptic currents after 20 to 26 mins by electrophysiology method relative to control; parameters: scale not given: the % may be the effect or the level left
T4 sequence (whole entry): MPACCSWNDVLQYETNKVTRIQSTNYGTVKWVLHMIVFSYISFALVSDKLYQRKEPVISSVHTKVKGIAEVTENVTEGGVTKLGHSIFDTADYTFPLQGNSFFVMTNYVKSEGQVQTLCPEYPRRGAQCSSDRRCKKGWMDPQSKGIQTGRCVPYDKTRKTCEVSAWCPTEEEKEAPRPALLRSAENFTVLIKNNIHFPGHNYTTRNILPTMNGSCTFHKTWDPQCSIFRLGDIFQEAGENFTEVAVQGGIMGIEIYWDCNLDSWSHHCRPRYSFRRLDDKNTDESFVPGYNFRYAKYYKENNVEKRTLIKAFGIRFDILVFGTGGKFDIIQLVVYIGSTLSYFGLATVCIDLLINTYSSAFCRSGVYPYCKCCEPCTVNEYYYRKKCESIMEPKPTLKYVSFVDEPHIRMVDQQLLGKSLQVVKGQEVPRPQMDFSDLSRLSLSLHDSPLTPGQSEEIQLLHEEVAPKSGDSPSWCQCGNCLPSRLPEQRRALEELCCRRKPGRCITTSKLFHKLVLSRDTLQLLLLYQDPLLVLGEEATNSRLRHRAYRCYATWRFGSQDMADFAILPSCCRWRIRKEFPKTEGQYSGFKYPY

[26] = molecular target: T3, Sodium- and chloride-dependent glycine transporter 1; assay: Inhibition of human GlyT-1
Mus musculus [27] = assay: In vivo inhibition of GlyT in CFA-induced mechanical hyperalgesia C57BL/6J mouse model assessed as increase in extracellular glycine level in CSF at 200 mg/kg, sc relative to basal level; format: functional
Mus musculus [28] = assay: Analgesic activity in CFA-induced mechanical hyperalgesia C57BL/6J mouse model assessed as reduction in mechanical paw withdrawal threshold administered sc measured after 2 hrs; format: functional, organism-based
Rattus norvegicus [29] = species: Rattus norvegicus; assay: Antiallodynic activity in Sprague-Dawley rat model of spared nerve injury-induced allodynia assessed as inhibition of electrically evoked inhibitory post-synaptic current amplitude in spinal cord by electrophysiology method; format: functional
[30] = molecular target: T2, Sodium- and chloride-dependent glycine transporter 2; assay: Inhibition of GlyT-2 (unknown origin)

T1 sequence (O75311 whole entry): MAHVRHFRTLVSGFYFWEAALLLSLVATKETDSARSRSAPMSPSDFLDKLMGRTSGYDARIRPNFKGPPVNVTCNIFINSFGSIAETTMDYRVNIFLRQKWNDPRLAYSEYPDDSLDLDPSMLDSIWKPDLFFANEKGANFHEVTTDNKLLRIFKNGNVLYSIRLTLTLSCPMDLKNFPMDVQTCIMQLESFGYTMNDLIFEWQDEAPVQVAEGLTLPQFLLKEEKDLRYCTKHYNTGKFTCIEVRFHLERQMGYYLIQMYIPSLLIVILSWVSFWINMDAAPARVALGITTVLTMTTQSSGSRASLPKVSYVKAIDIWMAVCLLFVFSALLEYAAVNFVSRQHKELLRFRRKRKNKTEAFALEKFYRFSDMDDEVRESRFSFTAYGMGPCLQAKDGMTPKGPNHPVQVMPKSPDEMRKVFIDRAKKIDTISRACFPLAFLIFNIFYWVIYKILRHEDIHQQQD
T1 sequence (P48167 whole entry): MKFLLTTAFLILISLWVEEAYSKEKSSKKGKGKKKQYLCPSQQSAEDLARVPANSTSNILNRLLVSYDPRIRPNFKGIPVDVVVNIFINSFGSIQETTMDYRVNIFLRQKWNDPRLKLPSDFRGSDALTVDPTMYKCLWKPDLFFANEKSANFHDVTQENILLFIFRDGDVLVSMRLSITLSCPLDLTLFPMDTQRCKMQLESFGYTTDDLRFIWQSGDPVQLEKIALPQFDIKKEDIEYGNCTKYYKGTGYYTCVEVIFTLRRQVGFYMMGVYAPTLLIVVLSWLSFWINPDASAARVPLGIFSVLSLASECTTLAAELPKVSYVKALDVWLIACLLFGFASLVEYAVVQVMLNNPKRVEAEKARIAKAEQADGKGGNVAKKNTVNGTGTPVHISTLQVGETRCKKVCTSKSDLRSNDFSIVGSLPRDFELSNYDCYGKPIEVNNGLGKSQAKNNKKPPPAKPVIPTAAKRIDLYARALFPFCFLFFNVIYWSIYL
Chain of 5-hydroxytryptamine receptor 2A (P28223 whole entry): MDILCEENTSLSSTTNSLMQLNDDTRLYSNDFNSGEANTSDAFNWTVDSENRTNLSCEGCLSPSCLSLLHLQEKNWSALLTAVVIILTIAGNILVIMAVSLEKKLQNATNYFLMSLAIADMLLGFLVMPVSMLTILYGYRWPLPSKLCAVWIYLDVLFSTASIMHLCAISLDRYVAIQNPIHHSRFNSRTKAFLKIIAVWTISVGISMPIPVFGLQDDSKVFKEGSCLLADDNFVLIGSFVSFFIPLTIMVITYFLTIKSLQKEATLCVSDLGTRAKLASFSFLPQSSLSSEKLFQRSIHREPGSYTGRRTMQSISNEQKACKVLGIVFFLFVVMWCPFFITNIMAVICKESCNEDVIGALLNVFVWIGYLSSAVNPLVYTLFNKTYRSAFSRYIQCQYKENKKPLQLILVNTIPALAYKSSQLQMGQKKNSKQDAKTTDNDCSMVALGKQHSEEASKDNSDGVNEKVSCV

CCCCOc1c(OC)cc(C(=O)NCC2(N(C)C)CCOCC2)cc1OC
ED50 (Rattus norvegicus [1]): 80 mg/kg
IC50 [2]: 1.3 µM
ED50 (Rattus norvegicus [3]): 20 mg/kg

CN1c2ncccc2N(Cc2ccccc2C(F)(F)F)C(=O)[C@H]1Cc1ccc(C(N)=O)cc1
Activity [4]: 64%
Activity [5]: 303%
Activity [6]: 28%

C#Cc1cc(C(=O)OC)cc(-c2ncco2)c1
Activity [4]: 49%
Activity [5]: 255%
EC50 [7]: 10.2 µM
Activity [6]: 52%

N[C@@H](COC(c1cccc(F)c1)c1ccccc1OCc1ccccc1)C(=O)O (stereo partly drawn)
inhibition (INH) (Rattus norvegicus [8]): 37%
IC50 [9]: 0.1 µM
inhibition (INH) (Rattus norvegicus [10]): 65%
IC50 [11]: 4 µM
Kp uu [12]: 0.036
inhibition (INH) (Rattus norvegicus [13]): 26%
Ratio IC50 (Homo sapiens): 40
inhibition (INH) (Rattus norvegicus [14]): 76%

COc1cc(C(=O)NCC2(N(C)C)CCCC2)cc(OC)c1OCc1ccccc1
MTD [15]: 2 mg/kg
IC50 [16]: > 100 µM
ED50 (Mus musculus [17]): 11 ng
Occ (Mus musculus [18]): 60%
Occ (Mus musculus [19]): 82%
Kp uu [12]: 0.5
Activity (Mus musculus [20]): 33%
Activity (Mus musculus [21]): 80%
Activity (Rattus norvegicus [22]): 337%
Occ (Mus musculus [23]): 6%
Occ (Mus musculus [24]): 36%

O=C(O)c1ccc(C[C@@H]2Sc3ccccc3N(Cc3ccccc3C(F)(F)F)C2=O)cc1F
Activity [4]: 44%
Activity [5]: 259%
Activity [6]: 161%

Nc1ncnc2c1ncn2[C@@H]1O[C@H](COP(=O)(O)OP(=O)(O)OP(=O)(O)O)[C@@H](OC(=O)c2ccc(C(=O)c3ccccc3)cc2)[C@H]1O
Activity [25]: 135%

O=[N+]([O-])c1cccc(S(=O)(=O)NCCOc2cccc3cccnc23)c1
Activity [4]: 98%
Activity [5]: 136%
Activity [6]: 23%

CNCC(=O)O [SARCOSINE]
IC50 [26]: 91 µM

CCNCC(=O)O
inhibition in vivo at 200 mg/kg (Mus musculus [27]): 25%
EC50 (Mus musculus [28]): 98 mg/kg

NS(=O)(=O)c1cc2c(cc1Cl)NC(C1CC3C=CC1C3)NS2(=O)=O (stereo not drawn) [CYCLOTHIAZIDE]
inhibition (INH) (Rattus norvegicus [29]): 37.9%

O=S(=O)(NCCOc1cccc2cccnc12)c1ccccc1
Activity [4]: 182%
Activity [5]: 2710%
EC50 [7]: 3.98 µM
Activity [6]: 65%

CC(C)(C)c1cc(C(C)(C)C)c(O)c(C(=O)O)c1O
Activity [4]: 182%
Activity [5]: 2060%
EC50 [7]: 0.0135 µM
Activity [6]: 67%

O=C(O)c1ccc(C[C@H]2Sc3c(F)cccc3N(Cc3ccccc3C(F)(F)F)C2=O)cc1
Activity [4]: 59%
Activity [5]: 396%
EC50 [7]: 0.661 µM
Activity [6]: 52%

CCCCC/C=C\C/C=C\C/C=C\C/C=C\CCCC(=O)NCC(=O)O [ARACHIDONOYL GLYCINE]
IC50 [30]: 3 µM

COc1ccc2c(c1)CC[C@H](CN(C)CC(=O)O)[C@@H]2c1ccccc1 [ORG-25935]
IC50 [26]: 0.1 µM

CN1C(=O)[C@@H]2CN(S(=O)(=O)c3ccc4c(c3)OCO4)C[C@@H]2c2cnccc21
Activity [4]: 95%
Activity [5]: 1350%
Activity [6]: 94%

NCC1(CC(=O)O)CCCCC1 [GABAPENTIN]
ED50 (Mus musculus [17]): 8200 ng
